In patent US20140363383A1, “AEROSOL FORMULATION FOR COPD” (Chiesi Farmaceutici S.p.A, priority 2009, published 2014):

Test: Compatibility with other active ingredients, especially formoterol
Format: physicochemical
Details: versus glycopyrronium bromide

In the case of `C[N+]1(C)CCC(OC(=O)C(O)(c2ccccc2)C2CCCC2)C1.[Cl-]` (stereo not shown) [glycopyrronium chloride, 3-[(cyclopentylhydroxyphenylacetyl)oxy]-1,1-dimethylpyrrolidinium chloride], the “compatibility with other active ingredients” value is reported as “better compatibility with other active ingredients”.
